Experimental data: BindingDB's records for doi:10.7270/Q2QZ28D7 (Burnham Center For Chemical Genomics, 2009)

Target: his6-Siah1 (aa 81-282) (Homo sapiens, UniProt Q8IUQ4)
Test: Siah-1 peptide-binding antagonists, primary screen, biochemical, fluorescence polarization, rhodamine-plectin, uHTS (AID 1817)
Settings: not given

his6-Siah1 (aa 81-282), sequence (Q8IUQ4 whole entry, looked up, the tested form may be a part): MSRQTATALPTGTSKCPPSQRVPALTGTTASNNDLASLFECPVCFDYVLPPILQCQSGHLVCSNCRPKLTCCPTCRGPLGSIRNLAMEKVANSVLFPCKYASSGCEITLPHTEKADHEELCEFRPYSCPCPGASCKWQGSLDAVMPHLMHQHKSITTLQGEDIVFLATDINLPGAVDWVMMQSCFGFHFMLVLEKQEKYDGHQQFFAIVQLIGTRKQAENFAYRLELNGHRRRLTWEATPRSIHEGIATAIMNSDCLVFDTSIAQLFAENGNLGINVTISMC

Q: Which IC50 does the source give for `C[N+]1(CCNC(=O)CN=O)CCCCC1` here?
A: > 200 µM

Q: With `CCOC(=O)C1(C)CC(=Nc2ccc(O)cc2)C(=O)N1c1ccc(O)cc1` (centres undefined) as the molecule, how does the IC50 read?
A: > 200 µM

Q: With `CC1(C)Cc2c(sc(N=CN3CCCCCC3)c2C#N)C(C)(C)N1` as the molecule, how does the IC50 read?
A: > 200 µM

Q: Which IC50 does the source give for `COc1cc(NS(=O)(=O)c2ccc(NC(=S)NC(=O)C=Cc3ccc(F)cc3)cc2)ncn1` here?
A: > 200 µM

Q: For `CN1/C(=C\C=C\C2=[N+](C)c3ccc4ccccc4c3C2(C)C)C(C)(C)c2ccccc21` [1,1,3-trimethyl-2-[(E,3Z)-3-(1,3,3-trimethyl-2-indolylidene)prop-1-enyl]benzo[e]indol-3-ium;perchlorate], which IC50 is on record?
A: > 200 µM

Q: With `CN(Cc1c(C(=O)NN=Cc2ccc(F)cc2)nnn1-c1nonc1N)C1CCCCC1` [1-(4-amino-1,2,5-oxadiazol-3-yl)-5-[[cyclohexyl(methyl)amino]methyl]-N-[(4-fluorophenyl)methylideneamino]triazole-4-carboxamide] as the molecule, how does the IC50 read?
A: > 200 µM

Q: Which IC50 does the source give for `Fc1ccc(C=NNC(=S)Nc2cccnc2)cc1F` [1-[[3,4-bis(fluoranyl)phenyl]methylideneamino]-3-pyridin-3-yl-thiourea] here?
A: > 200 µM

Q: Which IC50 does the source give for `CCN(CC)CCOC(=O)c1ccc(N=CC(C#N)c2nc(-c3cc4ccccc4oc3=O)cs2)cc1` (centres undefined) [2-(diethylamino)ethyl 4-[[(Z)-2-cyano-2-[4-(2-oxochromen-3-yl)-1,3-thiazol-2-yl]ethenyl]amino]benzoate] here?
A: 11.2 µM

Q: With `CCOC(=O)C1=C(C)N=c2sc(=Cc3ccc(OCC(=O)O)cc3)c(=O)n2C1c1ccc(Cl)cc1` (centres undefined) [2-[4-[[5-(4-chlorophenyl)-6-ethoxycarbonyl-7-methyl-3-oxidanylidene-5H-[1,3]thiazolo[3,2-a]pyrimidin-2-ylidene]methyl]phenoxy]ethanoic acid] as the molecule, how does the IC50 read?
A: > 200 µM

Q: For `CCN(CC)c1ccc(C=c2sc3nnc(-c4ccccc4Cl)n3c2=O)cc1` [3-(2-chlorophenyl)-6-[4-(diethylamino)benzylidene][1,3]thiazolo[2,3-c][1,2,4]triazol-5(6H)-one], which IC50 is on record?
A: > 200 µM

Q: Which IC50 does the source give for `COC(=O)c1cccc(Cn2c(Cl)c(C=NNC(=O)c3ccccc3Cl)sc2=O)c1` [3-{4-Chloro-5-[(2-chloro-benzoyl)-hydrazonomethyl]-2-oxo-thiazol-3-ylmethyl}-benzoic acid methyl ester] here?
A: > 200 µM

Q: For `O=C(Nc1ccc(Br)cc1)c1ccc(-n2c(O)c3c(c2O)CC=CC3)cc1` [4-[1,3-bis(oxidanylidene)-3a,4,7,7a-tetrahydroisoindol-2-yl]-N-(4-bromophenyl)benzamide], which IC50 is on record?
A: 18.6 µM

Q: Which IC50 does the source give for `CC(C)(C)c1cc(-c2cs/c(=N\c3ccccc3)n2Cc2ccc(C(=O)O)cc2)cc(C(C)(C)C)c1O` [4-[[4-(3,5-ditert-butyl-4-oxidanyl-phenyl)-2-phenylazanyl-1,3-thiazol-3-ium-3-yl]methyl]benzoic acid;bromide] here?
A: > 200 µM

Q: With `O=C(NN=Cc1cccc(Br)c1)c1ccc(Br)cc1` [4-bromanyl-N-[(3-bromophenyl)methylideneamino]benzamide] as the molecule, how does the IC50 read?
A: > 200 µM

Q: For `COc1ccc(NC2=NC(=O)SC2=Cc2ccc(N(C)C)cc2)cc1` [(5Z)-5-[[4-(dimethylamino)phenyl]methylidene]-4-(4-methoxyanilino)-1,3-thiazol-2-one], which IC50 is on record?
A: > 200 µM

Q: For `CCOC(=O)C(C#N)=c1sc(=C2C=Cc3ccccc3N2CC)c(=O)n1CC` [MLS000534135], which IC50 is on record?
A: > 200 µM

Q: Which IC50 does the source give for `O=C(NN=Cc1ccc(OC(=O)c2cccs2)cc1)c1cccc(F)c1` [MLS000576933] here?
A: > 200 µM

Q: With `O=C(O)c1ccc(C=NNC(=O)c2ccc(CN3c4cccc5cccc(c45)S3(=O)=O)cc2)cc1` [MLS001003216] as the molecule, how does the IC50 read?
A: > 200 µM

Q: With `CC[n+]1c(/C=C/N(C)c2ccccc2)sc2ccc(Cl)cc21` [N-[(E)-2-(5-chloro-3-ethyl-1,3-benzothiazol-3-ium-2-yl)ethenyl]-N-methylaniline;perchlorate] as the molecule, how does the IC50 read?
A: > 200 µM

Q: Which IC50 does the source give for `CCN(CC)c1ccc(C=NC(C#N)C(=N)C#N)cc1` (centres undefined) [SMR000023871] here?
A: > 200 µM

Q: For `Cc1ccc(S(=O)(=O)N[N-][C+]2C3CC4CC(C3)CC2C4)cc1[N+](=O)[O-]` [SMR000241699], which IC50 is on record?
A: > 200 µM

Q: With `Cc1cc(C)nc(NN=C2C(=O)N(Cc3ccc(Cl)cc3)c3ccccc32)n1` [SMR000248022] as the molecule, how does the IC50 read?
A: > 200 µM

Q: Which IC50 does the source give for `C=c1c(C#N)c2[nH]c(N)c(C#N)c(C)c-2c1=Cc1ccc(-c2ccccc2C(=O)O)o1` [SMR000277284] here?
A: 20.6 µM

Q: Which IC50 does the source give for `CCN(CC)CCOC(=O)c1ccc(N=CC(C#N)c2nc(-c3ccc(OC)c(OC)c3)cs2)cc1` (centres undefined) [SMR000434079] here?
A: 12.5 µM

Q: With `COC(=O)c1cc(NC(=O)c2ccccc2)c(=O)oc1CC=Nc1ccc(Oc2ccccc2)cc1` [methyl 5-benzamido-6-oxidanylidene-2-[(E)-2-[(4-phenoxyphenyl)amino]ethenyl]pyran-3-carboxylate] as the molecule, how does the IC50 read?
A: > 200 µM

Same assay, conditions: inactive by the depositor's call

Q: With `CCCCNc1c2c3c(cccc3n(C)c1=O)C(=O)c1ccccc1-2` [1-Butylamino-3-methyl-3H-naphtho[1,2,3-de]quinoline-2,7-dione] as the molecule, how does the IC50 read?
A: 23.1 µM

Q: For `CC1(C)OC(C)(C)C(=CNc2ccc(O)cc2)C1=O` [4-[(4-hydroxyanilino)methylene]-2,2,5,5-tetramethyldihydro-3(2H)-furanone], which IC50 is on record?
A: 48.2 µM

Target: not listed separately
Test: PubChem AID 1817
Settings: not given

Q: For `CCN1C(=O)C(=CNc2ccc(N3CCOCC3)cc2)C(=O)N(CC)C1=S`, which IC50 is on record?
A: 200 µM

Q: Which IC50 does the source give for `O=C1CCCC(=O)C1=NNc1ccc(C(=O)O)cc1` [SMR000370092] here?
A: 200 µM
